Data as given in patent US20230256094A1, “CANCER RADIOSENSITIZATION BY IN SITU FORMATION OF GOLD NANOPARTICLES AND/OR GOLD NANOCLUSTERS” (BOARD OF REGENTS, THE UNIVERSITY OF TEXAS SYSTEM, priority 2020, published 2023).

Experiments:
[1] = tested on: 8505C thyroid cancer and Nthy-Ori-3-1 normal thyroid cells; test: MTT assay of cell viability, thyroid cells; assay type: cell-based; conditions: 24 hour treatment, all concentrations
PANC1 pancreatic cancer [2] = test: MTT assay of cell viability after x-ray irradiation; assay type: cell-based, human; conditions: 24 hours after irradiation, all radiation dosages greater than 0 Gy, 0.20 mM
Protocol: FIG. 26 presents evidence of radiosensitization, quantifying the cell viability resulting from X-ray damage through MTT assay measured 24 and 96 hours after x-ray irradiation, resulting from 24 hour, 0.20 mM Au^3+ treatments (right bar in each dosage pair) compared against non-treated (left bar in each dosage pair) combined with either 0 Gy or 8 Gy x-ray irradiation. Treatments are in full cell media to PANC1 pancreatic cancer.

PANC1 pancreatic cancer [3] = test: JC-1 mitochondrial depolarization assay (cell viability); assay type: cell-based; conditions: 0.20-1.50 mM, 24 hour
Protocol: FIG. 19 reports cell viability as a function of 24 hour Au^3+ treatments at varied concentrations determined via JC-1 mitochondrial depolarization assay and in full cell media to PANC1 pancreatic cancer.
The JC-1 assay measures the charge potential of the mitochondria of cells through the fluorometric ratio of the JC-1 dye (ThermoFisher Scientific, Waltham, Mass.). JC-1 is a cationic carbocyanine dye that accumulates in mitochondria. The dye exists as a monomer at low concentrations and yields green fluorescence, similar to fluorescein. […] These characteristics make JC-1 a sensitive marker for mitochondrial membrane potential. In other words, mitochondrial depolarization is indicated by a decrease in the red/green fluorescence intensity ratio. Mitochondrial depolarization is an indicator of reduced cell viability.
(§1) 2.4. Characterize cytotoxicity of gold atom treatment. An MTS viability assay was used with 0-2.0 mM Au^3+ dose range. […] MTS assay was not usable at concentrations >0.75 mM Au^3+ due to intracellular formation of larger GNPs and their absorbance interfering with the MTS results. Therefore, at higher Au^3+ we switched to AO/PI live-dead staining (FIG. 15) and JC-1 mitochondrial depolarization assays (FIG. 19). JC-1 assay indicated cell viability ˜80% for concentrations between 0.20-1.50 mM Au^3+.

[4] = tested on: cancerous (Mia-PaCa-2 and PANC1) vs normal (HPDE) pancreatic cells; test: Fluorescent confocal microscopy of GNC biosynthesis, cancerous vs normal cells; assay type: cell-based; conditions: 1.00 mM, 24 hr (FIG. 8B)
Excerpt: Hoechst nuclear stain is the only imaging source in the untreated column and the primary imaging source in the albumin-GNC column and the non-cancer Au^3+ panel. Cells are live during imaging. Scale bars are 10 μm.
FIG. 8B quantifies GNC channel pixel intensity of the samples in each of the rows of FIG. 8A.
2.2. Comparisons of efficiency of the GNC in situ synthesis by cancer and normal cells. We compared GNC biosynthesis between normal (HPDE) and cancerous (Mia-PaCa-2 and PANC1) pancreatic cells using fluorescent confocal microscopy (FIG. 8A). In addition, we compared the efficiency of the intracellular synthesis with extracellular uptake of prefabricated albumin coated GNCs (FIG. 8A). […] Further, there was 12.20- and 7.69-times greater fluorescence due to in situ synthesis relative to cellular uptake of prefabricated GNCs in PANC1 and Mia-PaCa-2 cells, respectively (FIG. 8B).

PANC1 pancreatic cancer [5] = test: NADP(H) assay after irradiation; assay type: cell-based, human; conditions: 24 hr post-irradiation
Protocol: (§2) FIG. 23 reports on a mechanistic study of radiosensitization quantifying total NADP through NADP assay measured at 0, 1, and 24 hours, resulting from 24 hour, 0.20 mM Au^3+ treatments (right four bars) compared against non-treated (left four bars) combined with either 0 Gy or 8 Gy x-ray irradiation. Treatments are in full cell media to PANC1 pancreatic cancer.
as §2, with “24” for “23”, “the ratio of NADP^+/NADPH” for “total NADP”, “(right)” for “(right four bars)”, “(left)” for “(left four bars)”
Further, we characterized the mechanisms of radiosensitization through (i) quantification of double stranded DNA breaks via y-H2AX Foci (FIG. 21), (ii) mitochondrial polarization via JC-1 assay (FIG. 22), (iii) NADP total (FIG. 23) and NADP:NADPH ratio (FIG. 24) via NADP(H) assay, and (iv) peroxidation production via TBARS assay (FIG. 25).

PANC1 cells [6] = test: MTS viability assay; assay type: cell-based
Protocol: as §1

PANC1 cells [7] = test: Optimization of conditions for intracellular synthesis of fluorescent GNCs; assay type: cell-based, human
Protocol: 2.3. Optimization of conditions for intracellular synthesis of GNCs. We determined optimal conditions for intracellular synthesis of fluorescent GNCs by PANC1 cells through variations in (1) how long cells condition media before addition of Au^3+ ions (FIG. 11), (2) the concentration of FBS within the media (FIG. 10), (3) concentration of added Au^3+ ions (FIGS. 13), and (4) incubation time (FIG. 12). We used the following standard conditions: 24 hr cell conditioning time, 10% FBS, 1.00 mM Au^3+, and 24 hr Au^3+ treatment duration. […] We observed significant formation of GNCs at Au^3+ concentrations between 0.20-0.75 mM, with fluorescence reduced at concentrations greater than 1.00 mM, possibly, due to formation of larger non-fluorescent gold nanoparticles (GNPs). We observed fluorescence as early as 30 minutes after addition of gold atoms with a significant increase up to 4 hours.

In the case of `[Au+3].[Cl-].[Cl-].[Cl-].[Cl-].[H+]` [Au^3+, chloroauric acid], the “viability of cancer cells compared with normal cells (MTT)” value [1] is reported as “significantly lower viability of cancer cells than normal cells”, the “cell viability vs untreated controls (MTT)” value (PANC1 pancreatic cancer [2]) is reported as “significantly lower cell viability” and the “cell viability (JC-1)” value (PANC1 pancreatic cancer [3]) is reported as about 80%. The “greater fluorescence due to GNC biomineralization in cancerous cells than in non-cancerous HPDE” value [4] was about 2 fold, the “NADP total lower than for non-treated cells” value (PANC1 pancreatic cancer [5]) was about 43% and the “NADP:NADPH ratio larger than for non-treated cells” value (PANC1 pancreatic cancer [5]) was 181%. The “impact on viability (MTS)” value (PANC1 cells [6]; 0.0-0.20 mM) was “no impacts on viability”, the “cell viability (MTS)” value (PANC1 cells [6]; 0.75 mM) was about 81% and the “earliest time at which fluorescence was observed after addition” value (PANC1 cells [7]; 1.00 mM, 10% FBS) was 30 min. For the same compound, the “time up to which fluorescence increased significantly” value (PANC1 cells [7]; 1.00 mM, 10% FBS) was “up to 4 hours”, the “Au^3+ concentrations at which fluorescence is reduced” value (PANC1 cells [7]; 24 hr treatment, 10% FBS) was “greater than 1.00 mM” and the “Au^3+ concentrations with significant formation of GNCs” value (PANC1 cells [7]; 24 hr treatment, 10% FBS) was 0.20 to 0.75 mM. The “change of GNC synthesis with duration of media conditioning or FBS concentration” value (PANC1 cells [7]; media conditioning up to 72-hr, FBS 0-10% (v/v)) was “No significant changes”.
